In PubChem BioAssay AID248 (DTP/NCI, 2004):
Several values for one entry are separate records, joined by “and”; a condition that tells them apart may be missing. Equal entries are not always repeated. Toxic doses and inconclusive results are not listed. Cut-off read from the data, not from the text of the source: active = T/C of 150% or more; inactive = T/C below 125%. Square brackets hold non-standard residues; d marks the D form. Peptide text beside a SMILES is read from it. ξ: configuration not given here. ξF = NC(Cc1ccccc1)C(=O)O

Test system: L1210 leukemia ip in BDF1 mice, survival T/C
Test: NCI In Vivo Anticancer Drug Screen. Data for tumor model L1210 Leukemia (intraperitoneal) in B6D2F1 (BDF1) mice
Conditions: endpoint: mean survival time, higher = longer survival
Outline: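 Transplanted-tumor mice were given test agent; controls received vehicle only. Survival readings from the two groups were divided (treated over control).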

[1] = dose: 100.0 mg/kg/injection, schedule: Q01DX001 (ip), vehicle: saline
[2] = dose: 100.0 mg/kg/injection, schedule: Q04DX003 (ip), vehicle: saline
[3] = dose: 200.0 mg/kg/injection, schedule: Q01DX001 (ip), vehicle: saline
[4] = dose: 200.0 mg/kg/injection, schedule: Q04DX003 (ip), vehicle: saline
[5] = dose: 400.0 mg/kg/injection, schedule: Q01DX001 (ip), vehicle: saline
[6] = dose: 400.0 mg/kg/injection, schedule: Q04DX003 (ip), vehicle: saline
[7] = dose: 100.0 mg/kg/injection, schedule: Q01DX001 (ip), vehicle: carboxymethylcellulose (CMC)
[8] = dose: 100.0 mg/kg/injection, schedule: Q04DX003 (ip), vehicle: Klucel (hydroxypropylcellulose) (HPC)
[9] = dose: 200.0 mg/kg/injection, schedule: Q01DX001 (ip), vehicle: carboxymethylcellulose (CMC)
[10] = dose: 200.0 mg/kg/injection, schedule: Q04DX003 (ip), vehicle: Klucel (hydroxypropylcellulose) (HPC)
[11] = dose: 400.0 mg/kg/injection, schedule: Q04DX003 (ip), vehicle: Klucel (hydroxypropylcellulose) (HPC)
[12] = dose: 100.0 mg/kg/injection, schedule: Q04DX002 (ip), vehicle: Klucel (hydroxypropylcellulose) (HPC)
[13] = dose: 25.0 mg/kg/injection, schedule: Q04DX003 (ip), vehicle: Klucel (hydroxypropylcellulose) (HPC)
[14] = dose: 50.0 mg/kg/injection, schedule: Q04DX003 (ip), vehicle: Klucel (hydroxypropylcellulose) (HPC)
[15] = dose: 75.0 mg/kg/injection, schedule: Q04DX003 (ip), vehicle: Klucel (hydroxypropylcellulose) (HPC)
[16] = dose: 100.0 mg/kg/injection, schedule: Q01DX001 (ip), vehicle: Klucel (hydroxypropylcellulose) (HPC)
[17] = dose: 100.0 mg/kg/injection, schedule: Q01DX009 (ip), vehicle: Klucel (hydroxypropylcellulose) (HPC)
[18] = dose: 200.0 mg/kg/injection, schedule: Q01DX001 (ip), vehicle: Klucel (hydroxypropylcellulose) (HPC)
[19] = dose: 200.0 mg/kg/injection, schedule: Q01DX009 (ip), vehicle: Klucel (hydroxypropylcellulose) (HPC)
[20] = dose: 400.0 mg/kg/injection, schedule: Q01DX001 (ip), vehicle: Klucel (hydroxypropylcellulose) (HPC)
[21] = dose: 400.0 mg/kg/injection, schedule: Q01DX009 (ip), vehicle: Klucel (hydroxypropylcellulose) (HPC)

Measured: T/C

Cc1ccc(Nc2cc(=S)nc(N)[nH]2)cc1Cl
inactive: dose: 100.0 mg/kg/injection, schedule: Q01DX Z (ip), vehicle: methylcellulose (MC) 97 % of control | dose: 200.0 mg/kg/injection, schedule: Q01DX Z (ip), vehicle: methylcellulose (MC) 96 % of control

NCCc1ccc(N)cc1
inactive: [1] 106 % of control and 92 % of control | [2] 95 % of control | [3] 106 % of control and 89 % of control | [4] 98 % of control | [5] 97 % of control and 92 % of control | [6] 101 % of control

O=C(O)C1CC=CCC1c1ccccc1 (centres undefined)
inactive: dose: 100.0 mg/kg/injection, schedule: Q04DX003 (ip), vehicle: other 96 % of control | dose: 200.0 mg/kg/injection, schedule: Q04DX003 (ip), vehicle: other 96 % of control | dose: 400.0 mg/kg/injection, schedule: Q04DX003 (ip), vehicle: other 101 % of control

CN=C(NN)NCCO
inactive: dose: 175.0 mg/kg/injection, schedule: Q01DX001 (ip), vehicle: saline 96 % of control | dose: 265.0 mg/kg/injection, schedule: Q01DX001 (ip), vehicle: saline 96 % of control | [5] 110 % of control | dose: 600.0 mg/kg/injection, schedule: Q01DX001 (ip), vehicle: saline 98 % of control

ClCCN1CCOC1=Nc1ccccc1
inactive: dose: 100.0 mg/kg/injection, schedule: Q01DX001 (ip), vehicle: other 105 % of control | dose: 200.0 mg/kg/injection, schedule: Q01DX001 (ip), vehicle: other 105 % of control | dose: 400.0 mg/kg/injection, schedule: Q01DX001 (ip), vehicle: other 100 % of control

NCC(=O)NC(Cc1ccccc1)C(=O)O (centres undefined) (H-Gly-[ξF]-OH)
inactive: dose: 50.0 mg/kg/injection, schedule: Q01DX001 (ip), vehicle: saline 110 % of control | [1] 96 % of control | [3] 112 % of control | [5] 107 % of control

COc1ccc(CCNC(c2ccccc2)c2ccccc2)cc1OC
inactive: [2] 105 % of control | [4] 108 % of control | [6] 105 % of control

CC(=O)N(O)CCCCCNC(=O)CCC(=O)N(O)CCCCCNC(=O)CCC(=O)N(O)CCCCCN
inactive: dose: 83.0 mg/kg/injection, schedule: Q03HX024 (ip), vehicle: water 103 % of control | dose: 125.0 mg/kg/injection, schedule: Q03HX024 (ip), vehicle: water 102 % of control | dose: 420.0 mg/kg/injection, schedule: Q03HX024 (ip), vehicle: clinical formulation 102 % of control | dose: 420.0 mg/kg/injection, schedule: Q03HX024 (ip), vehicle: water 95 % of control and 103 % of control

c1ccc(C2NC2c2ccccc2)cc1 (centres undefined)
inactive: dose: 50.0 mg/kg/injection, schedule: Q01DX001 (ip), vehicle: carboxymethylcellulose (CMC) 112 % of control | [7] 97 % of control | [8] 103 % of control | [9] 97 % of control | [10] 95 % of control | [11] 91 % of control

O=C1NC2(C=CCCC2)C(O)(c2ccccc2)C12CCCCC2 (centres undefined)
inactive: dose: 75.0 mg/kg/injection, schedule: Q01DX001 (ip), vehicle: saline 95 % of control | dose: 150.0 mg/kg/injection, schedule: Q01DX001 (ip), vehicle: saline 86 % of control | dose: 300.0 mg/kg/injection, schedule: Q01DX001 (ip), vehicle: saline 89 % of control

Ic1ccc([I+]c2ccc(I)cc2)cc1
inactive: [12] 106 % of control | dose: 200.0 mg/kg/injection, schedule: Q04DX002 (ip), vehicle: Klucel (hydroxypropylcellulose) (HPC) 106 % of control | dose: 400.0 mg/kg/injection, schedule: Q04DX002 (ip), vehicle: Klucel (hydroxypropylcellulose) (HPC) 106 % of control

c1ccc(P(c2ccccc2)N2CCN(P(c3ccccc3)c3ccccc3)CC2)cc1
inactive: dose: 100.0 mg/kg/injection, schedule: Q04DX002 (ip), vehicle: saline with Tween-80 96 % of control | dose: 200.0 mg/kg/injection, schedule: Q04DX002 (ip), vehicle: saline with Tween-80 93 % of control | dose: 400.0 mg/kg/injection, schedule: Q04DX002 (ip), vehicle: saline with Tween-80 104 % of control

CCN(CC)CCNCc1ccc(Cl)cc1
inactive: [13] 92 % of control | [14] 96 % of control | [15] 96 % of control and 103 % of control

CN(C)CCOC(=O)c1ccccc1CBr
inactive: dose: 25.0 mg/kg/injection, schedule: Q01DX009 (ip), vehicle: saline 97 % of control | dose: 50.0 mg/kg/injection, schedule: Q01DX009 (ip), vehicle: saline 95 % of control | dose: 75.0 mg/kg/injection, schedule: Q01DX009 (ip), vehicle: saline 93 % of control

CCSC(=O)N1C=Cc2ccccc2C1C#N (centres undefined)
inactive: [16] 95 % of control | [17] 95 % of control | [18] 90 % of control | [19] 95 % of control | [20] 101 % of control | [21] 108 % of control

O=c1[nH]c(-c2ccccc2)c(CO)c(=O)[nH]1
inactive: [15] 103 % of control | [16] 96 % of control | dose: 150.0 mg/kg/injection, schedule: Q04DX003 (ip), vehicle: Klucel (hydroxypropylcellulose) (HPC) 97 % of control | [18] 102 % of control | dose: 300.0 mg/kg/injection, schedule: Q04DX003 (ip), vehicle: Klucel (hydroxypropylcellulose) (HPC) 105 % of control | [20] 109 % of control

S=c1[nH]ccn1-c1ccccc1
inactive: [7] 103 % of control | [9] 110 % of control | dose: 400.0 mg/kg/injection, schedule: Q01DX001 (ip), vehicle: carboxymethylcellulose (CMC) 101 % of control

CCCCCCCCCCCCC(CCCCCCCCCCC)CCCCCCCCCCCC
inactive: dose: 100.0 mg/kg/injection, schedule: Q01DX001 (ip), vehicle: saline with Tween-80 97 % of control | dose: 200.0 mg/kg/injection, schedule: Q01DX001 (ip), vehicle: saline with Tween-80 97 % of control | dose: 400.0 mg/kg/injection, schedule: Q01DX001 (ip), vehicle: saline with Tween-80 96 % of control

O=C1NC(c2cccc3ccccc23)Nc2cc(Cl)ccc21 (centres undefined)
inactive: dose: 50.0 mg/kg/injection, schedule: Q01DX009 (ip), vehicle: Klucel (hydroxypropylcellulose) (HPC) 109 % of control | [17] 112 % of control | dose: 150.0 mg/kg/injection, schedule: Q01DX009 (ip), vehicle: Klucel (hydroxypropylcellulose) (HPC) 118 % of control

CCC1C(=O)OC2(CO)C(=O)N(C)CCC12 (centres undefined)
inactive: dose: 15.6 mg/kg/injection, schedule: Q01DX001 (ip), vehicle: saline 103 % of control | dose: 31.3 mg/kg/injection, schedule: Q01DX001 (ip), vehicle: saline 103 % of control | dose: 62.5 mg/kg/injection, schedule: Q01DX001 (ip), vehicle: saline 91 % of control | dose: 125.0 mg/kg/injection, schedule: Q01DX001 (ip), vehicle: saline 94 % of control

Cc1c(C)c(CN)c(C)c(C)c1CN
inactive: [17] 91 % of control | [8] 103 % of control | [19] 100 % of control | [10] 98 % of control

COc1cc([N+](=O)[O-])ccc1NC(=O)Nc1ccc(Cl)cc1[N+](=O)[O-]
inactive: [17] 100 % of control | [19] 95 % of control | [21] 90 % of control

C[N+](C)(C)CC1COCCO1 (centres undefined)
inactive: dose: 5.0 mg/kg/injection, schedule: Q01DX001 (ip), vehicle: saline 105 % of control

S=C1SC2CCCCC2S1 (centres undefined)
inactive: dose: 25.0 mg/kg/injection, schedule: Q04DX002 (ip), vehicle: Klucel (hydroxypropylcellulose) (HPC) 100 % of control | dose: 50.0 mg/kg/injection, schedule: Q04DX002 (ip), vehicle: Klucel (hydroxypropylcellulose) (HPC) 106 % of control | [12] 95 % of control | [8] 103 % of control | [10] 94 % of control | [11] 103 % of control

CCC(C)(C)c1cccc(C(=O)O)c1O
inactive: [7] 104 % of control | [9] 93 % of control

CCCCCn1c(Cl)c(C(=O)O)c2ccccc21
inactive: [13] 109 % of control | [14] 97 % of control | [8] 102 % of control
